Source: patent US8747537B2, “Ink containing heterocyclic azo dye, and dye for use in said ink” (Mitsubishi Chemical Corporation, priority 2010, dated 2014)

What was measured:
[1] = Solubility test in low-polarity solvents (saturated solution, λmax, solubility, εC); type: physicochemical; conditions: for Solubility: saturated solution
Experimental: The solubility of each dye in n-decane, tetradecane, Isopar M, Isopar G, and decalin was examined in the following manner. Each dye was added to each solvent until a dissolution residue came to remain, and this mixture was subjected to a 30-minute ultrasonic treatment at 30 degrees. The resultant mixture was allowed to stand at 5° C. for 24 hours and then subjected to centrifugal filtration (centrifugal force, 5,200×g) with a 0.1-μm filter using a microcentrifuge. The saturated solution obtained was diluted to an adequate concentration, and the solubility of each dye was calculated from a relationship with an extinction coefficient determined beforehand. Furthermore, the value of the product of the molar extinction coefficient ε (Lmol^−1cm^−1) and the concentration C (molL^−1) of the saturated solution, εC, was determined.
Sudan Black B (manufactured by Tokyo Kasei Kogyo Co., Ltd.), which is a commercial oil-soluble black dye, was added to n-decane until a dissolution residue came to remain, and this mixture was subjected to a 30-minute ultrasonic treatment at 30 degrees. The resultant mixture was allowed to stand at 5° C. for 24 hours and then subjected to centrifugal filtration (centrifugal force, 5,200×g) with a 0.1-μm filter using a microcentrifuge. The saturated n-decane solution obtained was diluted to an adequate concentration, and the solubility of the dye was calculated from a relationship with an extinction coefficient determined beforehand.

[2] = Light fastness test (retention of dye after 2 hours of high-pressure mercury lamp irradiation); type: physicochemical; conditions: 1 mg in 250 mL, 2 hours irradiation
Experimental: The light fastness of each dye was examined in the following manner. One milligram of each dye was dissolved in 250 mL of each of n-decane, tetradecane, Isopar M, and Isopar G, and the solution was irradiated with light for 2 hours using photoreaction apparatus UVL-400HA (400-W high-pressure mercury lamp), manufactured by Riko-Kagaku Sangyo Co., Ltd. During the irradiation, the vessel was cooled with a coolant to keep the internal temperature at 10-30° C. The retention of the dye was determined through the following calculation to evaluate the light fastness. Retention of dye=(absorbance at absorption-maximum wavelength after irradiation)/(absorbance at absorption-maximum wavelength before irradiation)

[3] = n-decane, stood at 5° C. for 24 hours, 0.1-μm filter
[4] = n-decane, 400-W high-pressure mercury lamp

Compound	εC ([1]; Isopar G)	λmax (absorption-maximum wavelength) ([1]; Isopar G solution) [nm]	Solubility ([1]; Isopar G)	εC ([1]; Isopar M)	λmax (absorption-maximum wavelength) ([1]; Isopar M solution) [nm]	Solubility ([1]; Isopar M)	εC (molar extinction coefficient × concentration of saturated solution) ([1]; n-decane)	λmax (absorption-maximum wavelength) ([1]; n-decane solution) [nm]	Solubility [1, 3]	εC ([1]; tetradecane)	λmax (absorption-maximum wavelength) ([1]; tetradecane solution) [nm]	Solubility ([1]; tetradecane)	Light fastness: retention of dye [2, 4] [%]	further results
CCCCC(CC)CNc1ccc(NCC(CC)CCCC)c2c1C(=O)c1ccccc1C2=O (centres unmarked) [Comparative dye 2, reference compound]	1200 cm⁻¹	649	4.3%	1000 cm⁻¹	650	3.6%	2000 cm⁻¹	652	6.6%	1600 cm⁻¹	651	5.7%	92	εC ([1]; decalin): 3400 cm⁻¹; λmax (absorption-maximum wavelength) ([1]; decalin solution): 645 nm; Solubility ([1]; decalin): 9.98%; εC (in words) ([1]; each of the low-polarity solvents): small value; λmax (in words) ([1]; low-polarity solvents): large value; Light fastness: retention of dye ([2]; Isopar G): 85%; Light fastness: retention of dye ([2]; Isopar M): 90%; Light fastness: retention of dye ([2]; tetradecane): 99%
C=Cn1c(N=Nc2ccc(N(CCCC)CCCC)cc2NC(C)=O)nc(C#N)c1C#N [Comparative dye 3, reference compound]	≦10 cm^−1	–	≦0.01%	≦10 cm^−1	–	≦0.01%	≦10 cm^−1	–	≦0.01%	≦10 cm^−1	–	≦0.01%	76	εC ([1]; decalin): ≦10 cm^−1; λmax (absorption-maximum wavelength) ([1]; decalin solution): 520 nm; Solubility ([1]; decalin): ≦0.01%
CCc1nsc(N=Nc2ccc(N(CC(C)C)CC(C)C)cc2NC(C)=O)c1C#N [Dye 1]	–	–	–	–	–	–	1000 cm⁻¹	538	1.1%	–	–	–	97	–
CCCCC(CC)CN(CC(CC)CCCC)c1ccc(N=Nc2snc(C)c2C#N)c(NC(C)=O)c1 (centres unmarked) [Dye 2]	5000 cm⁻¹	542	5.7%	4000 cm⁻¹	544	4.32%	6600 cm⁻¹	543	7.9%	4900 cm⁻¹	545	5.4%	97	εC ([1]; decalin): 24000 cm⁻¹; λmax (absorption-maximum wavelength) ([1]; decalin solution): 547 nm; Solubility ([1]; decalin): 24.5%; Light fastness: retention of dye ([2]; Isopar G): 100%; Light fastness: retention of dye ([2]; Isopar M): 100%; Light fastness: retention of dye ([2]; tetradecane): 94%
CCCCC(CC)CN(CC(CC)CCCC)c1ccc(N=Nc2sc(C(=O)OCC)c(C)c2C(=O)OCC)c(NC(C)=O)c1 (centres unmarked) [Dye 3]	–	–	–	–	–	–	1300 cm⁻¹	537	2.4%	–	–	–	92	–
CCCCC(CC)CN(CC(CC)CCCC)c1ccc(/N=N/c2snc(CC)c2C#N)c(C)c1 (centres unmarked) [Dye 4]	4900 cm⁻¹	526	7.4%	6000 cm⁻¹	530	8.51%	5700 cm⁻¹	527	6.6%	5200 cm⁻¹	530	6.8%	96	εC ([1]; decalin): 5200 cm⁻¹; λmax (absorption-maximum wavelength) ([1]; decalin solution): 534 nm; Solubility ([1]; decalin): 6.5%; Light fastness: retention of dye ([2]; Isopar G): 98%; Light fastness: retention of dye ([2]; Isopar M): 95%; Light fastness: retention of dye ([2]; tetradecane): 82%
CCCCCCCCN(CC(CC)CCCC)c1ccc(/N=N/c2snc(C)c2C#N)c(C)c1 (centres unmarked) [Dye 5]	–	–	–	–	–	–	1300 cm⁻¹	523	2.1%	–	–	–	–	–
CCCCC(CC)CN(CC(CC)CCCC)c1ccc(/N=N/c2sc(C(=O)OCC)c(C)c2C(=O)OCC)c(C)c1 (centres unmarked) [Dye 6]	–	–	–	–	–	–	3200 cm⁻¹	504	8.4%	–	–	–	–	–
CCCCC(CC)CN(CC(CC)CCCC)c1ccc(/N=N/c2sc(C(=O)OCC)c(C)c2C(=O)OCC)c(NC(=O)CC)c1 (centres unmarked) [Dye 7]	6000 cm⁻¹	535	10%	6300 cm⁻¹	536	10%	5700 cm⁻¹	536	10.3%	5400 cm⁻¹	538	9.7%	98	Light fastness: retention of dye ([2]; Isopar G): 98%; Light fastness: retention of dye ([2]; Isopar M): 87%; Light fastness: retention of dye ([2]; tetradecane): 81%
CCCCC(CC)CN(CC(CC)CCCC)c1ccc(/N=N/c2snc(C)c2C#N)c(CC)c1 (centres unmarked) [Dye 8]	3600 cm⁻¹	533	5.17%	2500 cm⁻¹	534	3.4%	6500 cm⁻¹	533	10%	2800 cm⁻¹	534	3.9%	–	–
CCCCC(CC)CN(CC(CC)CCCC)c1ccc(/N=N/c2snc(C)c2C#N)c(NC(=O)CC)c1 (centres unmarked) [Dye 9]	11500 cm⁻¹	543	13.3%	8900 cm⁻¹	544	9.8%	11000 cm⁻¹	543	13%	7400 cm⁻¹	544	8.5%	–	εC ([1]; decalin): 8500 cm⁻¹; λmax (absorption-maximum wavelength) ([1]; decalin solution): 547 nm; Solubility ([1]; decalin): 9.1%
CCCCC(CC)CN(CC)c1ccc(/N=N/c2snc(CC)c2C#N)c(NC(C)=O)c1 (centres unmarked) [Dye 11]	–	–	–	–	–	–	4300 cm⁻¹	535	4.2%	–	–	–	–	–
CCCCc1nsc(/N=N/c2ccc(N(CC(C)C)CC(C)C)cc2NC(C)=O)c1C#N [Dye 12]	–	–	–	–	–	–	4100 cm⁻¹	543	5.7%	–	–	–	–	–
CCCCc1nsc(/N=N/c2ccc(N(CC(CC)CCCC)CC(CC)CCCC)cc2C)c1C#N (centres unmarked) [Dye 13]	–	–	–	–	–	–	3700 cm⁻¹	527	5.9%	–	–	–	–	–
CCCCC(CC)CN(CC(CC)CCCC)c1ccc(/N=N/c2snc(C(C)C)c2C#N)c(C)c1 (centres unmarked) [Dye 14]	–	–	–	–	–	–	2800 cm⁻¹	527	4.8%	–	–	–	–	–
CCCCC(CC)CN(CC(CC)CCCC)c1ccc(/N=N/c2snc(C)c2C#N)c(C(C)C)c1 (centres unmarked) [Dye 15]	–	–	–	–	–	–	8300 cm⁻¹	535	9.7%	–	–	–	–	–
CCCCC(CC)CN(CC(CC)CCCC)c1cc(C)c(/N=N/c2snc(C)c2C#N)cc1OC (centres unmarked) [Dye 16]	–	–	–	–	–	–	2300 cm⁻¹	563	3.7%	–	–	–	–	–
CCCCC(CC)CN(CC(CC)CCCC)c1ccc(/N=N/c2snc(C)c2C#N)cc1 (centres unmarked) [Dye 17]	–	–	–	–	–	–	12000 cm⁻¹	523	9.2%	–	–	–	–	–
CCOC(=O)c1sc(/N=N/c2ccc(N(CC(C)C)CC(C)C)cc2C)c(C(=O)OCC)c1C [Dye 18]	–	–	–	–	–	–	1000 cm⁻¹	498	1.7%	–	–	–	–	–
CCCCC(CC)CN(CC(CC)CCCC)c1ccc(/N=N/c2sc(C(=O)OCC)c(C)c2C#N)c(CC)c1 (centres unmarked) [Dye 20]	–	–	–	–	–	–	6000 cm⁻¹	546	9.7%	–	–	–	–	–
